Measured values taken from the supplement of paper PMC11451515.

Test system: SEM cells
Assay: cell viability relative to DMSO control; higher = less cytotoxic
Conditions: 48 h
Procedure, shortened: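 NOMO1 or SEM cells were plated at 500 cells/well and P12-Ichikawa cells at 1000 cells/well in 1536-well plates (5 μl), after each leukemia line had been adapted for at least four passages in each medium. Pin dosing delivered library compounds in DMSO at 11 threefold concentrations, 47 μM to 0.79 nM. CellTiter-Glo One luminescence was read after 48 h at 37°C. Viability is reported as a per-plate percentage of DMSO wells, with cell-free wells as background.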

[1] = HPLM + 10% dialyzed FBS, 0.000781 µM
[2] = HPLM + 10% dialyzed FBS, 0.00234 µM
[3] = HPLM + 10% dialyzed FBS, 0.00702 µM
[4] = HPLM + 10% dialyzed FBS, 0.0211 µM
[5] = HPLM + 10% dialyzed FBS, 0.0632 µM
[6] = HPLM + 10% dialyzed FBS, 0.19 µM
[7] = HPLM + 10% dialyzed FBS, 0.569 µM
[8] = HPLM + 10% dialyzed FBS, 1.71 µM
[9] = HPLM + 10% dialyzed FBS, 5.12 µM
[10] = HPLM + 10% dialyzed FBS, 15.4 µM
[11] = HPLM + 10% dialyzed FBS, 46.1 µM
[12] = RPMI 5 mM glucose + 10% FBS, 0.000781 µM
[13] = RPMI 5 mM glucose + 10% FBS, 0.00234 µM
[14] = RPMI 5 mM glucose + 10% FBS, 0.00702 µM
[15] = RPMI 5 mM glucose + 10% FBS, 0.0211 µM
[16] = RPMI 5 mM glucose + 10% FBS, 0.0632 µM
[17] = RPMI 5 mM glucose + 10% FBS, 0.19 µM
[18] = RPMI 5 mM glucose + 10% FBS, 0.569 µM
[19] = RPMI 5 mM glucose + 10% FBS, 1.71 µM
[20] = RPMI 5 mM glucose + 10% FBS, 5.12 µM
[21] = RPMI 5 mM glucose + 10% FBS, 15.4 µM
[22] = RPMI 5 mM glucose + 10% FBS, 46.1 µM
[23] = RPMI 5 mM glucose + 10% dialyzed FBS, 0.000781 µM
[24] = RPMI 5 mM glucose + 10% dialyzed FBS, 0.00234 µM
[25] = RPMI 5 mM glucose + 10% dialyzed FBS, 0.00702 µM
[26] = RPMI 5 mM glucose + 10% dialyzed FBS, 0.0211 µM
[27] = RPMI 5 mM glucose + 10% dialyzed FBS, 0.0632 µM
[28] = RPMI 5 mM glucose + 10% dialyzed FBS, 0.19 µM
[29] = RPMI 5 mM glucose + 10% dialyzed FBS, 0.569 µM
[30] = RPMI 5 mM glucose + 10% dialyzed FBS, 1.71 µM
[31] = RPMI 5 mM glucose + 10% dialyzed FBS, 5.12 µM
[32] = RPMI 5 mM glucose + 10% dialyzed FBS, 15.4 µM
[33] = RPMI 5 mM glucose + 10% dialyzed FBS, 46.1 µM

## C=C1C(=O)[C@@]23C(CC[C@@H]1[C@H]2O)[C@@]12CO[C@]3(O)[C@@H](O)[C@@H]1C(C)(C)CC[C@@H]2O (stereo not given in full)
[1]
  cell viability: 102%
[2]
  cell viability: 96.9%
[3]
  cell viability: 109%
[4]
  cell viability: 113%
[5]
  cell viability: 119%
[6]
  cell viability: 103%
[7]
  cell viability: 98.5%
[8]
  cell viability: 103%
[9]
  cell viability: 70%
[10]
  cell viability: 20.5%
[11]
  cell viability: 3.53%
[12]
  cell viability: 106%
[13]
  cell viability: 86.9%
[14]
  cell viability: 107%
[15]
  cell viability: 101%
[16]
  cell viability: 104%
[17]
  cell viability: 102%
[18]
  cell viability: 86.7%
[19]
  cell viability: 67.7%
[20]
  cell viability: 37%
[21]
  cell viability: 4.45%
[22]
  cell viability: 2.3%
[23]
  cell viability: 105%
[24]
  cell viability: 7.74%
[25]
  cell viability: 99.2%
[26]
  cell viability: 109%
[27]
  cell viability: 113%
[28]
  cell viability: 107%
[29]
  cell viability: 92%
[30]
  cell viability: 97.3%
[31]
  cell viability: 49.3%
[32]
  cell viability: 9.6%
[33]
  cell viability: 2.85%

## COc1cc([C@@H]2c3cc4c(cc3[C@H](O)[C@H]3COC(=O)[C@@H]23)OCO4)cc(OC)c1OC
[1]
  cell viability: 83.1%
[2]
  cell viability: 82.7%
[3]
  cell viability: 95.3%
[4]
  cell viability: 101%
[5]
  cell viability: 86.7%
[6]
  cell viability: 69.5%
[7]
  cell viability: 30.2%
[8]
  cell viability: 19.1%
[9]
  cell viability: 18.8%
[10]
  cell viability: 13.2%
[11]
  cell viability: 11.6%
[12]
  cell viability: 101%
[13]
  cell viability: 97.2%
[14]
  cell viability: 104%
[15]
  cell viability: 98.3%
[16]
  cell viability: 93.5%
[17]
  cell viability: 80.7%
[18]
  cell viability: 23.2%
[19]
  cell viability: 12.1%
[20]
  cell viability: 12.2%
[21]
  cell viability: 13.5%
[22]
  cell viability: 6.13%
[23]
  cell viability: 75.4%
[24]
  cell viability: 76%
[25]
  cell viability: 99.9%
[26]
  cell viability: 86.5%
[27]
  cell viability: 81.2%
[28]
  cell viability: 63%
[29]
  cell viability: 29.2%
[30]
  cell viability: 16.8%
[31]
  cell viability: 17.9%
[32]
  cell viability: 16.9%
[33]
  cell viability: 8.73%

## CCOc1cc2ncc(C#N)c(Nc3ccc(OCc4ccccn4)c(Cl)c3)c2cc1NC(=O)/C=C/CN(C)C
[1]
  cell viability: 109%
[2]
  cell viability: 122%
[3]
  cell viability: 126%
[4]
  cell viability: 122%
[5]
  cell viability: 111%
[6]
  cell viability: 107%
[7]
  cell viability: 19.4%
[8]
  cell viability: 9.21%
[9]
  cell viability: 7.03%
[10]
  cell viability: 6.73%
[11]
  cell viability: 4.72%
[12]
  cell viability: 87%
[13]
  cell viability: 95.4%
[14]
  cell viability: 83.4%
[15]
  cell viability: 80.8%
[16]
  cell viability: 79.7%
[17]
  cell viability: 31.9%
[18]
  cell viability: 7.35%
[19]
  cell viability: 5.75%
[20]
  cell viability: 5.48%
[21]
  cell viability: 4.73%
[22]
  cell viability: 3.12%
[23]
  cell viability: 119%
[24]
  cell viability: 133%
[25]
  cell viability: 117%
[26]
  cell viability: 116%
[27]
  cell viability: 121%
[28]
  cell viability: 95.9%
[29]
  cell viability: 16.9%
[30]
  cell viability: 8.13%
[31]
  cell viability: 6.73%
[32]
  cell viability: 6.47%
[33]
  cell viability: 4.68%

## CC\12CCC(=O)\C=C1CCC3C2CCC4(C)C3CCC4(O)C#C (stereo not given)
[1]
  cell viability: 105%
[2]
  cell viability: 104%
[3]
  cell viability: 105%
[4]
  cell viability: 99.9%
[5]
  cell viability: 113%
[6]
  cell viability: 102%
[7]
  cell viability: 103%
[8]
  cell viability: 117%
[9]
  cell viability: 91.1%
[10]
  cell viability: 94.9%
[11]
  cell viability: 90.5%
[12]
  cell viability: 107%
[13]
  cell viability: 92.2%
[14]
  cell viability: 99.2%
[15]
  cell viability: 102%
[16]
  cell viability: 94.5%
[17]
  cell viability: 106%
[18]
  cell viability: 95.7%
[19]
  cell viability: 95.8%
[20]
  cell viability: 70.7%
[21]
  cell viability: 100%
[22]
  cell viability: 99%
[23]
  cell viability: 112%
[24]
  cell viability: 105%
[25]
  cell viability: 98.3%
[26]
  cell viability: 113%
[27]
  cell viability: 117%
[28]
  cell viability: 102%
[29]
  cell viability: 113%
[30]
  cell viability: 98.5%
[31]
  cell viability: 97.3%
[32]
  cell viability: 106%
[33]
  cell viability: 99.9%

## CN1CCN(c2c(F)cc3c(=O)c(C(=O)O)cn(CCF)c3c2F)CC1
[1]
  cell viability: 84.2%
[2]
  cell viability: 85.3%
[3]
  cell viability: 103%
[4]
  cell viability: 118%
[5]
  cell viability: 108%
[6]
  cell viability: 105%
[7]
  cell viability: 100%
[8]
  cell viability: 109%
[9]
  cell viability: 109%
[10]
  cell viability: 105%
[11]
  cell viability: 110%
[12]
  cell viability: 96.4%
[13]
  cell viability: 96.4%
[14]
  cell viability: 108%
[15]
  cell viability: 105%
[16]
  cell viability: 110%
[17]
  cell viability: 104%
[18]
  cell viability: 116%
[19]
  cell viability: 111%
[20]
  cell viability: 125%
[21]
  cell viability: 118%
[22]
  cell viability: 101%
[23]
  cell viability: 105%
[24]
  cell viability: 92.6%
[25]
  cell viability: 123%
[26]
  cell viability: 113%
[27]
  cell viability: 111%
[28]
  cell viability: 112%
[29]
  cell viability: 117%
[30]
  cell viability: 129%
[31]
  cell viability: 111%
[32]
  cell viability: 114%
[33]
  cell viability: 118%

## CCOC(=O)[C@@]1(CCCCCCOc2ccc(Cl)cc2)CO1
[1]
  cell viability: 95.4%
[2]
  cell viability: 103%
[3]
  cell viability: 111%
[4]
  cell viability: 112%
[5]
  cell viability: 113%
[6]
  cell viability: 95.9%
[7]
  cell viability: 115%
[8]
  cell viability: 94.3%
[9]
  cell viability: 95.2%
[10]
  cell viability: 51.3%
[11]
  cell viability: 23.9%
[12]
  cell viability: 114%
[13]
  cell viability: 119%
[14]
  cell viability: 126%
[15]
  cell viability: 120%
[16]
  cell viability: 125%
[17]
  cell viability: 116%
[18]
  cell viability: 115%
[19]
  cell viability: 98.5%
[20]
  cell viability: 102%
[21]
  cell viability: 32.3%
[22]
  cell viability: 12.6%
[23]
  cell viability: 102%
[24]
  cell viability: 107%
[25]
  cell viability: 107%
[26]
  cell viability: 106%
[27]
  cell viability: 103%
[28]
  cell viability: 107%
[29]
  cell viability: 114%
[30]
  cell viability: 102%
[31]
  cell viability: 95%
[32]
  cell viability: 50.4%
[33]
  cell viability: 17%

## O=C(CCCCCCC(=O)Nc1ccc([C@H]2O[C@@H](CSc3nc(-c4ccccc4)c(-c4ccccc4)o3)C[C@@H](c3ccc(CO)cc3)O2)cc1)NO
[12]
  cell viability: 109%
[13]
  cell viability: 124%
[14]
  cell viability: 128%
[15]
  cell viability: 134%
[16]
  cell viability: 121%
[17]
  cell viability: 112%
[18]
  cell viability: 115%
[19]
  cell viability: 114%
[20]
  cell viability: 87.4%
[21]
  cell viability: 8.6%
[22]
  cell viability: 7.11%
[23]
  cell viability: 113%
[24]
  cell viability: 117%
[25]
  cell viability: 135%
[26]
  cell viability: 135%
[27]
  cell viability: 124%
[28]
  cell viability: 133%
[29]
  cell viability: 130%
[30]
  cell viability: 116%
[31]
  cell viability: 77.6%
[32]
  cell viability: 9.58%
[33]
  cell viability: 7.49%
